This is an account of results in article PMC3767324, “Synthesis, Characterization, and BSA Binding Studies of Some New Benzamides Related to Schiff Base” (ISRN Organic Chemistry, 2013).

Data set [1] is described as follows: DPPH free radical scavenging activity. The conditions noted are these: DPPH 0.1 mM, absorbance at 517 nm; triplicate, mean ± SD. Here is the method:
The capacity to scavenge the stable free radical 2,2-diphenyl-1-picrylhydrazyl (DPPH) was monitored according to the Blois method. The test samples (10–100 μL) were mixed with 1 mL of DPPH (0.1 mM) solution and filled up with methanol to a final volume of 4 mL. Absorbance of the resulting solution was measured at 517 nm in a visible spectrophotometer (Model 166, Systronics, India). The free radical scavenging rate of the reaction solution was calculated as a percentage (%) of DPPH decolouration using the equation (1) I(%)=(Ablank−Asample/Ablank)×100, where A blank is the absorbance of the control reaction mixture excluding the test compounds, and A sample is the absorbance of the test compounds. Radical scavenging potential was expressed as IC50 value, which represents the sample concentration at which 50% of the DPPH radicals were scavenged. Tests were carried out in triplicate and the results were expressed as mean values ± standard deviations.
DPPH radical scavenging activity evaluation is a standard assay in antioxidant activity studies and offers a rapid technique for screening the radical scavenging activity of specific compounds [24]. The free radical scavenging activity of newly synthesized compounds was tested by their ability to bleach the stable radical DPPH. The activity was monitored by following the absorption at 517 nm in a visible spectrophotometer. In the presence of any free radical scavenger, this odd electron pairs up and causes the diminishing of absorption band which is proportional to the number of electrons taken up. The activity was studied at different concentrations for each compound. […] Resulting from a color change from purple to yellow the absorbance decreased when the antioxidant molecule can quench DPPH free radical through donation of hydrogen atom or by electron donating to form a stable DPPH molecule.
In general terms: DPPH is a stable violet radical that fades when it is reduced.

Data set [2] in a line: superoxide radical scavenging assay (NBT, xanthine-xanthine oxidase system). The conditions noted are these: NBT reduction, pH 7.8, 560 nm, three replicates. Format: biochemical. Here is the method:
Superoxide radical scavenging activity was measured as described by Kovala-Demertzi et al., (2004). The assay is based on the reduction of nitroblue tetrazolium (NBT) by superoxide ions generated by the xanthine-xanthine oxidase system (X–XO). The reaction system contained 0.2 mM xanthine and 0.6 mM NBT in 0.1 M phosphate buffer, pH 7.8. The tested compounds were dissolved in methanol. The reaction was started by addition of XO (0.07 U mL^−1), an activity which allowed to yield the absorbance change between 0.03 and 0.04 per minute, at 560 nm. The extent of NBT reduction was followed spectrophotometrically, by measuring the increase of the absorbance at 560 nm. All the experiments were replicated three times. The IC50 of each compound was defined as the concentration which inhibited 50% of the NBT reduction by O2 ^•− produced in the X–XO system.
Superoxide anion radical is normally initially formed, and its effects can be magnified because it produces other kinds of free radicals and oxidizing agents. The enzymatic superoxide anion radical was generated by the xanthine/xanthine oxidase reaction system. The production of superoxide was estimated by the nitroblue tetrazolium method. […] Differently, in the m-position, methoxy and hydroxyl groups act as an electron-withdrawing properties, ([…]), which are possible for providing a destabilizing effect.

Data set [3] has as its system A. niger. As to the kind of experiment: agar disc diffusion, zone of inhibition. The class given is cell-based. Particulars: A. niger, discs 6 mm, test compounds 100 µg/mL in DMSO, standards 10 µg/disc, 28°C 48 h, average of three replicates; for zone of inhibition at 100 µg/mL: Aspergillus niger, read-out: zone of inhibition. Here is the method:
[The procedure below names another organism; the source lists this organism under the same test.] (§1) The in vitro antimicrobial screening effects of the compounds (3 and 5a–j) were individually tested against a panel of bacteria and fungi including Staphylococcus aureus (NCIM 5021), Bacillus subtilis (NCIM 2999), Pseudomonas aeruginosa (NCIM 5029), Escherichia coli (NCIM 2574), Candida. albicans (NCIM 3471), and Aspergillus flavus (NCIM 524). Microbial strains were cultured overnight at 37°C in nutrient and potato dextrose agar medium. All the pure microbial strains were obtained from National Chemical Laboratory (NCL), Pune, India.
(§2) The antibacterial activity of compounds was determined by agar disc diffusion method. Briefly, a suspension of tested bacterial strains was spread on the nutrient agar medium and potato dextrose agar for fungi. The discs (6 mm in diameter) impregnated with test chemicals each dissolved in concentration (100 μg/mL in DMSO) were placed on the inoculated agar and these plates were kept at 4°C for 2 h. The plate was incubated at 37°C for 24 h in case of bacteria and 48 h at 28°C in case of fungi. streptomycin (10 μg/disc) and fluconazole (10 μg/disc) were used as the standards for antibacterial and antifungal activity, respectively. All the samples were performed in triplicate and the zone of inhibition was measured in millimeters.
(Agar diffusion results depend on both activity and mobility in agar.)

Data set [4] deals with Aspergillus flavus (NCIM 524). Description: agar disc diffusion, zone of inhibition. The class given is cell-based. Particulars: A. flavus, discs 6 mm, test compounds 100 µg/mL in DMSO, standards 10 µg/disc, 28°C 48 h, average of three replicates; for zone of inhibition at 100 µg/mL: Aspergillus flavus, NCIM524, read-out: zone of inhibition. Here is the method: as §1, §2
For data set [5], the system named is Bacillus subtilis (NCIM 2999). As to the kind of experiment: agar disc diffusion, zone of inhibition. The class given is cell-based. Particulars: B. subtilis, discs 6 mm, test compounds 100 µg/mL in DMSO, standards 10 µg/disc, 37°C 24 h, average of three replicates; for zone of inhibition at 100 µg/mL: Bacillus subtilis, NCIM2999, read-out: zone of inhibition. Here is the method: as §1, §2

The test system of data set [6] is Escherichia coli (NCIM 2574). Description: agar disc diffusion, zone of inhibition. Particulars: E. coli, discs 6 mm, test compounds 100 µg/mL in DMSO, standards 10 µg/disc, 37°C 24 h, average of three replicates; for zone of inhibition at 100 µg/mL: Escherichia coli, NCIM2574, read-out: zone of inhibition. Format: cell-based. Here is the method: as §1, §2
Data set [7] has as its system Pseudomonas aeruginosa (NCIM 5029). As to the kind of experiment: agar disc diffusion, zone of inhibition. The class given is cell-based. Particulars: P. aeruginosa, discs 6 mm, test compounds 100 µg/mL in DMSO, standards 10 µg/disc, 37°C 24 h, average of three replicates; for zone of inhibition at 100 µg/mL: Pseudomonas aeruginosa, NCIM5029, read-out: zone of inhibition. Here is the method:
as §1, §2

Data set [8] deals with Staphylococcus aureus (NCIM 5021). As to the kind of experiment: agar disc diffusion, zone of inhibition. The class given is cell-based. Particulars: S. aureus, discs 6 mm, test compounds 100 µg/mL in DMSO, standards 10 µg/disc, 37°C 24 h, average of three replicates; for zone of inhibition at 100 µg/mL: Staphylococcus aureus, NCIM5021, read-out: zone of inhibition. Here is the method: as §1, §2

Data set [9] deals with A. niger. Description: minimum inhibitory concentration by dilution method. Format: cell-based. Particulars: A. niger, dilution method, average of three replicates. Here is the method:
[The procedure below names another organism; the source lists this organism under the same test.] as §1
(§3) The minimum inhibitory concentration of the synthesized compounds was determined by dilution method. The compounds were dissolved and then diluted using DMSO; two-fold serial concentrations of the compounds were employed to determine the MIC. In this method, the test concentrations of chemically synthesized compounds were made from 5 to 125 μg/mL.

The subject of data set [10] is Aspergillus flavus (NCIM 524). The data set is described as above. Particulars: A. flavus, dilution method, average of three replicates. Format: cell-based. Here is the method: as §1, §3
Data set [11] has as its system Bacillus subtilis (NCIM 2999). The data set is described as above. The class given is cell-based. Particulars: B. subtilis, dilution method, average of three replicates. Here is the method: as §1, §3
For data set [12], the system named is Escherichia coli (NCIM 2574). The description is as above. Format: cell-based. The conditions noted are these: E. coli, dilution method, average of three replicates. Here is the method: as §1, §3
Data set [13] concerns Pseudomonas aeruginosa (NCIM 5029). The data set is described as above. Format: cell-based. The conditions noted are these: P. aeruginosa, dilution method, average of three replicates. Here is the method:
as §1, §3

Data set [14] deals with Staphylococcus aureus (NCIM 5021). Described as above. The class given is cell-based. Particulars: S. aureus, dilution method, average of three replicates. Here is the method: as §1, §3
The mark [15] stands for this setting: Aspergillus niger, read-out: MIC.
Setting [16] is: Aspergillus flavus, NCIM524, read-out: MIC.
Where [17] appears, read: Bacillus subtilis, NCIM2999, read-out: MIC.
The mark [18] stands for this setting: Escherichia coli, NCIM2574, read-out: MIC.
Setting [19] is: Pseudomonas aeruginosa, NCIM5029, read-out: MIC.
Setting [20] is: Staphylococcus aureus, NCIM5021, read-out: MIC.

In brackets after ≈: the same amount, converted by molar mass. Read-outs that look alike come from different tables or passages of the source.

As to `O=C1O[C@H]([C@@H](O)CO)C(O)=C1O` [AA, Ascorbic acid, reference compound], the “IC50 DPPH” value in data set [1] was 12.6 ± 0.43 mg/L (≈ 71.5 µM).
With `COc1ccc(O)c(C(C)(C)C)c1` [BHA, butylated hydroxyanisole, reference compound], in data set [2], the “IC50 Superoxide” value turned out to be 13.4 ± 0.29 mg/L (≈ 74.3 µM).
`CC(=O)Nc1ccc(N=Cc2cc3ccccc3o2)cc1` [Compound 3, N-(4-((benzofuran-2-ylmethylene)amino)phenyl)acetamide]: the zone of inhibition at 100 µg/mL with A. niger [3] came out at 12.4 mm; in [4], 12.5 mm; in [5], 7 mm; in [6], 11 mm; in data set [7] it was 10 mm; in [8], 8 mm. Also, the MIC is 75 mg/L (≈ 269 µM) with A. niger [9] (setting [15]); 75 mg/L (≈ 269 µM) in data set [10] (setting [16]); 75 mg/L (≈ 269 µM) in data set [11] (setting [17]); over 100 mg/L in data set [12] (setting [18]); over 100 mg/L in [13] (setting [19]); 75 mg/L (≈ 269 µM) in data set [14] (setting [20]). Moreover, in [1], the “IC50 DPPH” value was found to be 95.3 ± 0.76 mg/L (≈ 342 µM). In addition, the “IC50 Superoxide” value in [2] came to 85.1 ± 0.33 mg/L (≈ 306 µM).
With `CC(=O)N(C(=O)Cc1ccccc1)c1ccc(N=Cc2cc3ccccc3o2)cc1` [Compound 5b, N-acetyl-N-(4-((benzofuran-2-ylmethylene)amino)phenyl)-2-phenylacetamide], the melting point worked out at 193 °C. Further, the zone of inhibition at 100 µg/mL in the data set on A. niger [3] came to 12 mm. Also, the zone of inhibition at 100 µg/mL in data set [4] was 15 mm. In addition, in data set [5], the zone of inhibition at 100 µg/mL was 10 mm. In addition, the zone of inhibition at 100 µg/mL in data set [6] came out at 10 mm. In addition, the zone of inhibition at 100 µg/mL in data set [7] amounted to 11 mm. In addition, the zone of inhibition at 100 µg/mL in data set [8] is 10 mm. Besides, the minimum inhibitory concentration (MIC) with A. niger [9] (setting [15]) was found to be 25 mg/L (≈ 63.1 µM). Further, the MIC in data set [10] (setting [16]) was 25 mg/L (≈ 63.1 µM). Also, in [11] (setting [17]), the minimal inhibitory concentration (MIC) was found to be 30 mg/L (≈ 75.7 µM). The minimal inhibitory concentration (MIC) in [12] (setting [18]) was determined as 50 mg/L (≈ 126 µM). For the same compound, the MIC in data set [13] (setting [19]) was 30 mg/L (≈ 75.7 µM). The minimal inhibitory concentration (MIC) in data set [14] (setting [20]) was 50 mg/L (≈ 126 µM). Further, the “IC50 DPPH” value in [1] was found to be 85.3 ± 0.14 mg/L (≈ 215 µM). The “IC50 Superoxide” value in data set [2] turned out to be 92.0 ± 0.35 mg/L (≈ 232 µM).
In the case of `CC(=O)N(C(=O)OCc1ccccc1Cl)c1ccc(N=Cc2cc3ccccc3o2)cc1` [Compound 5d, 2-chlorobenzylacetyl(4-((benzofuran-2-ylmethylene)amino)phenyl)carbamate], the zone of inhibition is 13.7 mm in the data set on A. niger [3]; 11 mm in data set [4]; 14 mm in data set [5]; 10 mm in [6]; 13 mm in data set [7]; 12 mm in [8]. Also, the MIC came out at 25 mg/L (≈ 55.9 µM) against A. niger [9]; 40 mg/L (≈ 89.5 µM) in data set [10]; 50 mg/L (≈ 112 µM) in data set [11]; 50 mg/L (≈ 112 µM) in [12]; 50 mg/L (≈ 112 µM) in data set [13]; 30 mg/L (≈ 67.1 µM) in [14]. Also, the “IC50 DPPH” value in [1] was 48.9 ± 0.11 mg/L (≈ 109 µM). For the same compound, the “IC50 Superoxide” value in [2] is 55.3 ± 0.04 mg/L (≈ 124 µM).
For `OC(Cn1cncn1)(Cn1cncn1)c1ccc(F)cc1F` [Fluconazole, fluconazole, reference compound], the results for the zone of inhibition at 100 µg/mL (in the data set on A. niger [3]; in data set [4]) were 16 mm and 19 mm, respectively. Further, the MIC (in the data set with A. niger [9] (setting [15]); in data set [10] (setting [16])) was 5 mg/L (≈ 16.3 µM) throughout.
In the case of `[H]/N=C(/N)N[C@H]1[C@H](O)[C@@H](O)[C@H](O[C@@H]2O[C@@H](C)[C@](O)(C=O)[C@H]2O[C@@H]2O[C@@H](CO)[C@H](O)[C@@H](O)[C@@H]2NC)[C@@H](N/C(N)=N\[H])[C@@H]1O` [Streptomycin, streptomycin, reference compound], the zone of inhibition at 100 µg/mL in data set [5] was found to be 13.4 mm; in data set [6] it was 16.5 mm; in data set [7], 14 mm; in data set [8], 14.1 mm. Moreover, the MIC in data set [11] (setting [17]), in data set [12] (setting [18]), in data set [13] (setting [19]) and in data set [14] (setting [20]) was 5 mg/L (≈ 8.6 µM) throughout.

One may read the zone of inhibition as the extent of the growth-free halo in a diffusion test. A word on the MIC: it is the lowest concentration that inhibits growth of the organism. As a reminder, the melting point is the temperature of the solid-liquid transition.
